Laboratory results as given in patent US6730669B2, “Amino acid hydroxyethylamino sulfonamide retroviral protease inhibitors” (G. D. Searle & Co., priority 1995, dated 2004).

Key:
HIV protease = biological target: T1, HIV protease (Human immunodeficiency virus type 1 group M subtype B, UniProt P04585); test: HIV protease enzyme assay (fluorescence, substrate 2-Ile-Nle-Phe(p-NO2)-Gln-ArgNH2); assay type: biochemical; details: 12.3 nanomolar enzyme, pH 6.4
T1 construct: HIV protease is diluted in the assay buffer to a final enzyme concentration of 12.3 nanomolar, based on a molecular weight of 10,780
Description: The compounds of the present invention are effective HIV protease inhibitors. Utilizing an enzyme assay as described below, the compounds set forth in the examples herein disclosed inhibited the HIV enzyme. […] The enzyme method is described below. The substrate is 2-Ile-Nle-Phe(p-NO2)-Gln-ArgNH2. The positive control is MVT-101 (Miller, M. et al, Science, 246, 1149 (1989)] The assay conditions are as follows:
20 mM sodium phosphate, pH 6.4
The above described substrate is dissolved in DMSO, then diluted 10 fold in assay buffer. Final substrate concentration in the assay is 80 μM. HIV protease is diluted in the assay buffer to a final enzyme concentration of 12.3 nanomolar, based on a molecular weight of 10,780.
The final concentration of DMSO is 14% and the final concentration of glycerol is 18%. The test compound is dissolved in DMSO and diluted in DMSO to 10× the test concentration; 10 μl of the enzyme preparation is added, the materials mixed and then the mixture is incubated at ambient temperature for 15 minutes. The enzyme reaction is initiated by the addition of 40 μl of substrate. The increase in fluorescence is monitored at 4 time points (0, 8, 16 and 24 minutes) at ambient temperature. Each assay is carried out in duplicate wells.

HIV-1 = test: CEM cell assay: HIV inhibition assay of acutely infected cells (tetrazolium based colorimetric, MTT); details: Human immunodeficiency virus 1, CCRF-CEM, 168 h; Table 21; CEM cells acutely infected with HIV-1, 7 days, MTT readout
Description: The effectiveness of various compounds were determined in the above-described enzyme assay and in a CEM cell assay. The HIV inhibition assay method of acutely infected cells is an automated tetrazolium based colorimetric assay essentially that reported by Pauwles et al, J. Virol. Methods, 20, 309-321 (1988). Assays were performed in 96-well tissue culture plates. CEM cells, a CD4+cell line, were grown in RPMI-1640 medium (Gibco) supplemented with a 10% fetal calf serum and were then treated with polybrene (2 μg/ml). An 80 μl volume of medium containing 1×10^4 cells was dispensed into each well of the tissue culture plate. To each well was added a 100 μl volume of test compound dissolved in tissue culture medium (or medium without test compound as a control) to achieve the desired final concentration and the cells were incubated at 37° C. for 1 hour. A frozen culture of HIV-1 was diluted in culture medium to a concentration of 5×10^4 TCID50 per ml (TCID50=the dose of virus that infects 50% of cells in tissue culture), and a 20 μL volume of the virus sample (containing 1000 TCID50 of virus) was added to wells containing test compound and to wells containing only medium (infected control cells). Several wells received culture medium without virus (uninfected control cells). Likewise, the intrinsic toxicity of the test compound was determined by adding medium without virus to several wells containing test compound. In summary, the tissue culture plates contained the following experiments:
In experiments 2 and 4 the final concentrations of test compounds were 1, 10, 100 and 500 μg/ml. Either azidothymidine (AZT) or dideoxyinosine (ddI) was included as a positive drug control. […] DMSO was added to all control wells at an appropriate concentration.
Following the addition of virus, cells were incubated at 37° C. in a humidified, 5% CO2 atmosphere for 7 days. Test compounds could be added on days 0, 2 and 5 if desired. On day 7, post-infection, the cells in each well were resuspended and a 100 μl sample of each cell suspension was removed for assay. A 20 μL volume of a 5 mg/ml solution of 3-(4,5-dimethylthiazol-2-yl)-2,5-diphenyltetrazolium bromide (MTT) was added to each […] cell suspension, and the cells were incubated for 4 hours at […] in a 5% CO2 environment. […] To each sample was added 100 μl of 10% sodium dodecylsulfate in 0.01 N HCl to lyse the cells, and samples were incubated overnight. The absorbance at 590 nm was determined for each sample using a Molecular Devices microplate reader. Absorbance values for each set of wells is compared to assess viral control infection, uninfected control cell response as well as test compound by cytotoxicity and antiviral efficacy.

## CCC(C)[C@H](NC(=O)CN1CCCC1)C(=O)N[C@@H](Cc1ccccc1)[C@H](O)CN(CC(C)C)S(=O)(=O)c1ccc2c(c1)CCO2 (stereo partly shown) [Entry 2]
HIV protease; Table 20, 80 μM substrate
  IC50: 2 nM

## CC(C)CN(C[C@@H](O)[C@H](Cc1ccccc1)NC(=O)[C@@H](NC(=O)CN1CCCC1)C(C)(C)C)S(=O)(=O)c1ccccc1 [Entry 4]
HIV-1
  EC50: 12 nM
HIV protease; Table 21, 80 μM substrate
  IC50: 4 nM

## COc1ccc(S(=O)(=O)N(CC(C)C)C[C@@H](O)[C@H](Cc2ccccc2)NC(=O)[C@@H](NC(=O)CN2CCCC2)C(C)(C)C)cc1 [Entry 5]
HIV-1
  EC50: 5 nM
HIV protease; Table 21, 80 μM substrate
  IC50: 3 nM

## CCC(C)[C@H](NC(=O)CN1CCCC1)C(=O)N[C@@H](Cc1ccccc1)[C@H](O)CN(CC(C)C)S(=O)(=O)c1ccccc1 (stereo partly shown) [Entry 1]
HIV protease; Table 20, 80 μM substrate
  IC50: 4 nM

## CC(C)CN(C[C@@H](O)[C@H](Cc1ccccc1)NC(=O)[C@H](CS(C)(=O)=O)NC(=O)CN1CCCC1)S(=O)(=O)c1ccc2c(c1)OCO2 [Entry 3]
HIV-1
  EC50: 120 nM
HIV protease; Table 21, 80 μM substrate
  IC50: 8 nM

## CCC(C)[C@H](NC(=O)CN1CCCC1)C(=O)N[C@@H](Cc1ccccc1)[C@H](O)CN(CC(C)C)S(=O)(=O)c1ccc2c(c1)OCO2 (stereo partly shown) [Entry 2]
HIV-1
  EC50: 12 nM
HIV protease; Table 21, 80 μM substrate
  IC50: 3 nM

## CCC(C)[C@H](NC(=O)CN1CCCC1)C(=O)N[C@@H](Cc1ccccc1)[C@H](O)CN(CC(C)C)S(=O)(=O)c1ccc(OC)cc1 (stereo partly shown) [Entry 9]
HIV-1
  EC50: 16 nM
HIV protease; Table 21, 80 μM substrate
  IC50: 3 nM

## CC(C)CN(C[C@@H](O)[C@H](Cc1ccccc1)NC(=O)[C@@H](NC(=O)CN1CCCC1)C(C)(C)C)S(=O)(=O)c1ccc2c(c1)CCO2 [Entry 11]
HIV-1
  EC50: 21 nM
HIV protease; Table 21, 80 μM substrate
  IC50: 4 nM

## COC(=O)Nc1nc2cc(S(=O)(=O)N(CC(C)C)C[C@@H](O)[C@H](Cc3ccccc3)NC(=O)[C@@H](NC(=O)CN3CCCC3)C(C)(C)C)ccc2[nH]1 [Entry 7]
HIV-1
  EC50: 29 nM
HIV protease; Table 21, 80 μM substrate
  IC50: 2 nM

## COc1ccc(S(=O)(=O)N(CC(C)C)C[C@@H](O)[C@H](Cc2ccccc2)NC(=O)[C@@H](NC(=O)CN2CCCC2)C(C)C)cc1 [Entry 13]
HIV-1
  EC50: 18 nM
HIV protease; Table 21, 80 μM substrate
  IC50: 3 nM

## CC(C)CN(C[C@@H](O)[C@H](Cc1ccccc1)NC(=O)[C@@H](NC(=O)CN1CCCC1)C(C)(C)S(C)(=O)=O)S(=O)(=O)c1ccc2c(c1)OCO2 [Entry 10]
HIV-1
  EC50: 39 nM
HIV protease; Table 21, 80 μM substrate
  IC50: 4 nM

## CC(C)CN(C[C@@H](O)[C@H](Cc1ccccc1)NC(=O)[C@@H](NC(=O)CN1CCCC1)C(C)(C)C)S(=O)(=O)c1ccc2c(c1)OCO2 [Entry 1]
HIV-1
  EC50: 7 nM
HIV protease; Table 21, 80 μM substrate
  IC50: 3 nM

## C#CC[C@H](NC(=O)CN1CCCC1)C(=O)N[C@@H](Cc1ccccc1)[C@H](O)CN(CC(C)C)S(=O)(=O)c1ccc2c(c1)OCO2 [Entry 12]
HIV-1
  EC50: 11 nM
HIV protease; Table 21, 80 μM substrate
  IC50: 2 nM

## CC(C)CN(C[C@@H](O)[C@H](Cc1ccccc1)NC(=O)[C@@H](NC(=O)CN1CCCC1)C(C)C)S(=O)(=O)c1ccc2c(c1)OCO2 [Entry 6]
HIV-1
  EC50: 6 nM
HIV protease; Table 21, 80 μM substrate
  IC50: 3 nM

## CC(C)CN(C[C@@H](O)[C@H](Cc1ccccc1)NC(=O)[C@@H](NC(=O)CN1CCCC1)C(C)(C)C)S(=O)(=O)c1ccc2ncsc2c1 [Entry 8]
HIV-1
  EC50: 16 nM
HIV protease; Table 21, 80 μM substrate
  IC50: 3 nM
